Source: article PMC7217877, “N-AS-triggered SPMs are direct regulators of microglia in a model of Alzheimer’s disease” (Nature Communications, 2020)
“And” between values parts separate entries of the source, which are not always exact repeats. Equal values may be shown once. Read-outs that look alike come from different tables or passages of the source.

Tests used:
microsomal stability = type: in vitro ADME; conditions: for half-life at 1 µM: pH 7.4
Procedure: An N-AS stock solution (10 mM dissolved in methanol) was diluted with methanol to make a concentration of 100 μM. A 10 μl aliquot of this solution was then diluted using 90 μl of 100 mM potassium phosphate buffer (pH 7.4). 10 μl of this N-AS solution was incubated at 37 °C with human or mouse liver microsomes (80 μl of 0.625 mg protein ml^−1 phosphate buffer) for 10 min before adding of 10 μl of an NADPH regenerating system to start the reaction. Reactions were stopped at 0, 15, 30, 60, and 90 min time-points by the addition of 200 μl cold acetonitrile (containing propranolol as internal standard at 20 ng ml^−1) and centrifuged at 17,968×g for 10 min. A 2 μl aliquot of the supernatant was injected into the LC-MS/MS system. The ratio of peak area of test compound/internal standard was used to determine the % remaining of N-AS over time.

APP/PS1 mice = experiment: cerebral amyloid angiopathy (CAA) quantification (Fig 6f); type: in vivo, mouse; conditions: Cortex; APP/PS1 + N-AS; individual values
Procedure: Thioflavin S (Sigma-Aldrich) staining was carried out according to previously described procedures. We used 6E10 (mouse, 1:100, Signet, SIG39300), anti-20G10 (mouse, 1:1000, provided by D. R. Howlett, GlaxoSmithKline, Harlow, Essex, UK) for Aβ42, anti-G30 (rabbit, 1:1000, provided by D. R. Howlett) for Aβ40, SMA (mouse, 1:400, Sigma-Aldrich, A2547), AT8 (mouse, 1:500, Thermo Fisher Scientific, MN1020), Caspase-3 (mouse, 1:200, Novus Biologicals, NB100-56708), ac-S565 (rabbit, 1:100), COX2 (mouse, 1:250, Thermo Fisher Scientific, 35-8200), Iba1 (rabbit, 1:500, Wako, 019-19941 and goat, Abcam, ab5076), NeuN (mouse, 1:500, Millipore, MAB177), GFAP (rabbit, 1:500, Dako, N1506 and chicken, 1:500, Abcam, ab4674), and Lamp1 (mouse, 1:200, Abcam, ab24170). The sections were analyzed with a laser-scanning confocal microscope (FV3000; Olympus) or with a BX51 microscope (Olympus). MetaMorph software (Molecular Devices) was used to quantification. Three-dimensional reconstruction of microglia was recorded and analyzed using IMARIS software (Bitplane)[11]. For the analysis of age-dependent microglial COX2^+ CX3CR1^+ cells in WT and APP/PS1 mice, COX2 (rabbit, 1:100, Abcam, ab15191) and CX3CR1 (mouse, 1:100, BioLegend, 149008) antibody were used and the images were acquired on Alexa 488 and APC Channel with performed using Operetta CLS and Analysis Software 4.5 (Perkin-Elmer). […]

[1] = single-dose brain PK and brain distribution; type: in vivo, C57BL/6 mice; conditions: mouse; for Kp / MRT / half-life / AUC(0-inf) / AUC(0-t): C57BL/6, brain; for AUC(0-inf): read-out: AUCinf (Brain); for AUC(0-t): read-out: AUClast (Brain)
Procedure: C57BL/6 mice were administered N-AS (Sigma-Aldrich, 01912) at doses of 1 mg kg^−1 (i.v.) or 10 mg kg^−1 (p.o.). Venous blood samples were collected at 5, 15, and 30 min, and 1, 2, 4, 8, and 24 h postdose. A 30 μl of plasma was separated from whole blood by centrifugation and stored at −80 °C until analysis. Also, brain samples were collected at 1, 2, 4, and 24 h postdose and heart, liver, and kidney samples were collected at 24 h postdose, thoroughly rinsed with physiological saline and weighed. Twenty percentage of tissue homogenates were prepared by homogenizing the tissue samples with four volumes of saline. A 30 μl aliquot of plasma or a 50 μl aliquot of tissue homogenates were deproteinized by addition of 200 μl cold methanol (containing naringenin as internal standard at 20 ng ml^−1) and centrifuged at 15,974×g for 10 min. A 10 μl aliquot of the supernatant was injected into Agilent 6470 LC-MS/MS system. Separation was performed on a Synergy Polar RP column (4 μm particle size, 2.0 mm ×150 mm, Phenomenex) using a mobile phase that consisted of methanol and water (85:15, v/v) with 0.1% formic acid at a flow rate of 0.2 ml min^−1. Quantification was carried out using multiple reaction monitoring (MRM) at m/z 340.3→263.3 for N-AS and m/z 271.1→151.3 for naringenin (internal standard) in negative ionization mode and collision energy of 20 eV. p, and relative oral BA values were calculated as follows: BA% = AUCp.o. normalized by p.o. dose/AUCi.v. normalized by i.v. dose × 100.

% of remaining after 0.5 h (microsomal stability; Mouse liver microsomes): 60.7% | half-life at 1 µM (microsomal stability; Human liver microsomes): 0.6 h | half-life at 1 µM (microsomal stability; Mouse liver microsomes): 0.9 h | Kp ([1]; iv, i.v. 1 mg/kg): 2.16 | MRT ([1]; iv, i.v. 1 mg/kg): 6.94 ± 0.62 h | half-life ([1]; iv, i.v. 1 mg/kg): 6.31 ± 0.38 h | AUC(0-inf) ([1]; iv, i.v. 1 mg/kg): 1440 ± 228 ng·h/mL | AUC(0-t) ([1]; iv, i.v. 1 mg/kg): 1340 ± 224 ng·h/mL | Kp ([1]; po, p.o. 10 mg/kg): 3.18 | MRT ([1]; po, p.o. 10 mg/kg): 8.64 ± 1.01 h | half-life ([1]; po, p.o. 10 mg/kg): 22 ± 6.07 h | AUC(0-inf) ([1]; po, p.o. 10 mg/kg): 1750 ± 362 ng·h/mL | AUC(0-t) ([1]; po, p.o. 10 mg/kg): 895 ± 60.5 ng·h/mL | Cmax (Brain) ([1]; i.v. 1 mg/kg): 165.18 ± 18.42 ng/mL | Cmax (Brain) ([1]; p.o. 10 mg/kg): 90.27 ± 2.95 ng/mL
Structure (SMILES): CCCCCCCCCCCCC/C=C/[C@@H](O)[C@H](CO)NC(C)=O [N-AS, N-((2S,3R,E)-1,3-Dihydroxyoctadec-4-en-2-yl)acetamide]
amyloid angiopathy (CAA) quantification (APP/PS1 mice): 0.11 and 0.15 and 0.12 and 0.1 and 0.17 and 0.13
